SMILES strings stand for the structures.

The target in the assay is T1, human NPY Y5 receptor (Homo sapiens, UniProt Q15761).
T1 construct: expressed in transfected cells
T1 sequence (Q15761 1-445): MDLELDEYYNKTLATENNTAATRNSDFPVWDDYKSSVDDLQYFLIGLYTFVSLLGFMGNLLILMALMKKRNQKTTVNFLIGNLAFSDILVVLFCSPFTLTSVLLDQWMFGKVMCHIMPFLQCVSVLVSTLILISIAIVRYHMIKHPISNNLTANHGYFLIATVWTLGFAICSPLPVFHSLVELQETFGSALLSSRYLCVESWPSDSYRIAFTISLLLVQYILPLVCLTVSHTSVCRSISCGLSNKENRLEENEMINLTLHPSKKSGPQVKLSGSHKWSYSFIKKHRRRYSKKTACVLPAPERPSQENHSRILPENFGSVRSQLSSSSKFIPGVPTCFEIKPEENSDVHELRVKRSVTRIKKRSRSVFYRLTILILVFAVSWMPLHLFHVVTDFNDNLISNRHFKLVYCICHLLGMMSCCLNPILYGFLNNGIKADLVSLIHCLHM
The assay can be described thus: test of inhibition of NPY binding ([125I] peptide YY binding to membranes of NPY Y5 receptor-expressing cells). The following applies: [125I] peptide YY 20,000 cpm, 25° C., 2 hours, pH 7.4; membranes of transfected COS-7, CHO or LM(tk-) cells; read-out: concentration needed to inhibit 50% of the specific binding to the peptide YY (IC50 value). The text has this: cDNA Sequence encoding a human NPY Y5 receptor [International Publication WO 96/16542] was cloned into expression vectors pcDNA3, pRc/RSV (manufactured by Invitrogen) and pCI-neo (manufactured by Promega). Using the cationic lipid method [see Proceedings of the National Academy of Science of the United States of America, vol.84, p.7413 (1987)], host cells COS-7, CHO and LM(tk-) (American Type Culture Collection) were transfected with the thus prepared expression vectors to obtain cells in which the NPY Y5 receptor had been expressed.
Each of the membrane preparations thus prepared from the cells in which the NPY Y5 receptor had been expressed was incubated together with each compound to be tested and 20,000 cpm of [^125 I,] peptide YY (manufactured by Amersham) at 25° C. for 2 hours in an assay buffer solution (25 mM HEPES buffer, pH 7.4, containing 10 mM magnesium chloride, 1 mM phenylmethylsulfonyl fluoride and 0.1% bacitracin) and then, the reaction mixture was filtered through a glass filter GF/C. After washing with 50 mM Tris buffer, pH 7.4, containing 0.3% BSA, radioactivity on the glass filter was measured using a gamma counter. […]

With `COc1ccc(-c2cc(NC(=O)Cc3ccc4ccccc4c3)[nH]n2)cc1OC` [Example 6], the IC50 turned out to be 8.3 nM.

Values taken from patent US6180653A, “Aminopyrazole derivatives” (Banyu Pharmaceutical Co., Ltd., priority 1996, dated 2001).
